Results published in patent US9611276B2, “Imidazo bicyclic iminium compounds as antitumor agents” (THE BOARD OF TRUSTEES OF THE LELAND STANFORD JUNIOR …, priority 2012, dated 2017).

Key:
[1] = system: Hh pathway-dependent osteoblast differentiation; experiment: C3H10T(1/2) cell assay, alkaline phosphatase; format: cell-based
Procedure: C3H10T(1/2) cells were obtained from ATCC and cultured in DMEM (Invitrogen, 11965) containing 10% (v/v) fetal bovine serum (Invitrogen, No. 26140), and 1× PenStrep (Gibco, 15140).
(§1) All test compounds were dissolved in DMSO at 50 mM, serially diluted by 1:3, 1:4 or 1:5 in a 96-well translucent microplate (Greiner bio-one, 650201) and stored at −20° C. These serial dilutions were added to assay media freshly with final DMSO concentration of 0.2% (v/v).
The C3H10T(1/2) cell assay provides a measure of Hh pathway-dependent osteoblast differentiation. C3H10T(1/2) cells were seeded into a 96-well plate (20,000 cells/well), cultured for 30 hrs and then incubated with test compounds in DMEM (Invitrogen, 11965) containing 0.5% (v/v) fetal bovine serum (Invitrogen, 26140), 1× PenStrep (Gibco, 15140), and 10% (v/v) Shh-N-conditioned medium for 44 hrs. The cells were lysed with lysis buffer (50 μL/well) containing 50 mM Tris-HCl, pH 9.5, 150 mM NaCl, 50 mM MgCl2, and 1% (v/v) Triton X-100. 10 μL of the obtained lysate were analyzed for alkaline phosphatase activities using CDP-Star Substrate (Applied Biosystems, T2146) reagent (50 μL/well) on a microplate luminometer (Veritas). Biological triplicates were analyzed for each test compounds.

[2] = system: Gli2; experiment: Gli2 trafficking assay in NIH 3T3 cells; format: cell-based; details: ShhN treatment
Procedure: NIH 3T3 cells were also employed in an assay to quantify Gli2 trafficking NIH-3T3 cells were seeded into 24-well plates containing poly-D-lysine-coated 12-mm glass coverslips (65,000 cells/well) and cultured for 24 hrs. […] Each compound or vehicle treatment was conducted in biological triplicates in the presence or absence of 10% (v/v) ShhN-conditioned medium. The cells were subsequently fixed in PBS containing 4% (v/v) paraformaldehyde for 12 min at room temperature, washed three times with PBS, permeabilized in PBS containing 0.5% (v/v) Triton X-100 for 5 min, and washed again twice in PBS. […] After three PBS washes, the coverslips were mounted onto slides using Prolong Gold Antifade Reagent with DAPI (Invitrogen, P36931). The cells were imaged using a Plan Apochromat 63×/1.4-0.6 oil immersion objective on an upright Leica DM4500B compound microscope. Ciliary Gli2 levels were quantified by determining total pixel intensity within a circular region manually placed at the distal end of each cilium and subtracting background fluorescence in an adjacent region of equivalent size. A total of 30 cilia from three coverslips were analyzed to determine the average ciliary Gli2 level for each experimental condition as a measure of Gli2 trafficking.

[3] = target: T1, Gli2 (Homo sapiens, UniProt P10070); experiment: Overexpression of Gli2 in NIH-3T3 cells, firefly luciferase reporter; format: cell-based; set-up: expressed in transfected cells; host or cells: NIH-3T3 (mouse fibroblasts)
Procedure: NIH-3T3 cells were obtained from ATCC and cultured in DMEM (Invitrogen, 11965) containing 10% (v/v) calf serum (ATCC, 30-2030), 1 mM sodium pyruvate (Invitrogen, 11360) and 1× PenStrep (Gibco, 15140).
as §1
Overexpression of Gli1 or Gli2 in NIH-3T3 cells provides a measure of Gli1- or Gli1/Gli2-induced pathway activity, respectively. NIH 3T3 cells were seeded into a 24-well plate (35,000 cells/well) and cultured for 30 hrs. […] The cells were lysed with passive lysis buffer (200 μL/well), and 10 μL of the obtained lysate were analyzed for firefly and Renilla luciferase activities using Dual-Luciferase Reporter Assay System (Promega, E1960) (50 μL/well of each reagent) on a microplate luminometer (Veritas). Biological triplicates were analyzed for each test compounds.

[4] = target: T1, Gli2; experiment: Overexpression of Gli2 in Gli1 null cells, firefly luciferase reporter; format: cell-based, mouse; set-up: expressed in transfected cells; host or cells: Gli1-/- immortalized mouse embryonic fibroblasts
Procedure: Gli1 null cells [see Lipinski et al. BMC Cell Biol. 2008; 9:49], an immortalized mouse embryonic fibroblast cell line lacking the Gli1 gene, were cultured in DMEM (Invitrogen, 11965) containing 10% (v/v) calf serum (ATCC, 30-2030), 1 mM sodium pyruvate (Invitrogen, 11360), 1× PenStrep (Gibco, 15140) and 1×MEM non-essential amino acids solution (11140, Invitrogen).
as §1
Overexpression of Gli2 in Gli1 null cells provides a measure of Gli2-induced pathway activity. pcDNA-derived Gli2 expression vectors (200 ng/well) and a 1:19 mixture (total 200 ng/well) of constitutive Renilla luciferase reporter (pRLTK, Promega) and firefly luciferase reporter (8XGliBS-FL) were mixed with FuGene HD transfection reagent (1.2 μL/well, Promega, E2311) in Opti-MEM Reduced-Serum Medium with GLutaMAX (Invitrogene, 51985) at a total volume of 25 μL/well. […] The cells were lysed with passive lysis buffer (200 μL/well), and 10 μL of the obtained lysate were analyzed for firefly and Renilla luciferase activities using Dual-Luciferase Reporter Assay System (Promega, E1960) (50 μL/well of each reagent) on a microplate luminometer (Veritas). […]

T1 sequence (P10070 whole entry, species assumed): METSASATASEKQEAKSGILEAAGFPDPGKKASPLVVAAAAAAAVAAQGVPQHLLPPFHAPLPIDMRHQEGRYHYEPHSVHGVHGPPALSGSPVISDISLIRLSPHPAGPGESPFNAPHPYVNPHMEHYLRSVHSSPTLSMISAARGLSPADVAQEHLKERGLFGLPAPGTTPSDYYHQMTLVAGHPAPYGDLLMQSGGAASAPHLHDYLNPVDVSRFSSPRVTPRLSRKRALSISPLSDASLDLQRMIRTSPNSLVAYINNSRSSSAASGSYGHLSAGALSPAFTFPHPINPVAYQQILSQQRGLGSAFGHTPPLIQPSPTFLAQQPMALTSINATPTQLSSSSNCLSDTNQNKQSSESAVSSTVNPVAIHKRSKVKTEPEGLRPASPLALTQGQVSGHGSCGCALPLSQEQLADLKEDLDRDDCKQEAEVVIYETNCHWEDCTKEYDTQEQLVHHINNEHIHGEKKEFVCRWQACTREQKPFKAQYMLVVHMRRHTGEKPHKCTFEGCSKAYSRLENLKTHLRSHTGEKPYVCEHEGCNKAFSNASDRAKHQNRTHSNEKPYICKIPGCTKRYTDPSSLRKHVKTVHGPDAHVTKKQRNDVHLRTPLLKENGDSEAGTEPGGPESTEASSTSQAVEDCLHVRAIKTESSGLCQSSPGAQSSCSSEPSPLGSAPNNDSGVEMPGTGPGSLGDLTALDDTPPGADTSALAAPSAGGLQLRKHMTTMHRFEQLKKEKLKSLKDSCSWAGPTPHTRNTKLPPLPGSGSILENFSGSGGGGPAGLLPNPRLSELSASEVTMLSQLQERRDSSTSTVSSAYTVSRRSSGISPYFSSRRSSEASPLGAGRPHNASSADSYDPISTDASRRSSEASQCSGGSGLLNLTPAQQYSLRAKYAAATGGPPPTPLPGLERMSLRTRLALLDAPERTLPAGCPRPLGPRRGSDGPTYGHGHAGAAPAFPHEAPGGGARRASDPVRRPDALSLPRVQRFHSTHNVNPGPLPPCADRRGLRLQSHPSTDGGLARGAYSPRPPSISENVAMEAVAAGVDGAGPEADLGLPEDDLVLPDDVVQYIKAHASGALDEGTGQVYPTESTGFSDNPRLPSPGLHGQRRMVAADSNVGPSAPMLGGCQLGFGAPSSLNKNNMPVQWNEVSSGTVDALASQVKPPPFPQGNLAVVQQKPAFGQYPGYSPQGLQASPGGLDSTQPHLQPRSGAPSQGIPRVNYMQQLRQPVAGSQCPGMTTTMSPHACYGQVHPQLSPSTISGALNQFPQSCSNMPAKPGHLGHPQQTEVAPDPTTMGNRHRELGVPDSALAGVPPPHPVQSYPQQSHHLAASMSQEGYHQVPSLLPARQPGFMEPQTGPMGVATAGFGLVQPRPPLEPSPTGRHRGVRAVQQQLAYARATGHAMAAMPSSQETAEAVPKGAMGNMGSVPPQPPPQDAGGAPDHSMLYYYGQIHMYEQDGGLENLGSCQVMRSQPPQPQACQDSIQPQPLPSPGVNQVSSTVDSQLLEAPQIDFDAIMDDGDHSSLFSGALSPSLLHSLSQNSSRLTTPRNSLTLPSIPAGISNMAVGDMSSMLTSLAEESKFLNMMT

## CCOc1ccc(-[n+]2cc(-c3ccc(Br)cc3)n3c2CCCCC3)cc1 [Compound A-1]
[1]; Osteoblast, C3H10T(½) w/ ShhN
  IC50: 5.2 ± 3.7 µM
[1]; ShhN-conditioned medium
  Differentiation of C3H10T1/2 cells into alkaline-phosphatase-expressing osteoblasts: blocked
[2]
  Effect on ShhN-induced Gli2 accrual at the ciliary distal tip: did not inhibit this process
[3]
  Hh reporter expression induced by exogenous Gli2: only partially inhibited
[4]
  Gli2-induced Hh reporter expression in cells lacking Gli1: not able to inhibit
[4]; Gli2-overexpressing Gli1-/-
  IC50, firefly luciferase: No inhibition
